Source: PubChem BioAssay AID1919002 (Molecular Pharmacology Branch, DTP, NCI, 2023)

System: 743489-274-T-PDC complex spheroid growth
Assay: Anticancer human tumor 743489-274-T-PDC patient-derived renal cell carcinoma cell line growth inhibition [AhR]
Conditions: for IC50: curve of first compound; for viability, T/C: stronger effect = lower value
Method in brief: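 Agents were dosed in half-log steps down from roughly clinical Cmax, or from 10 microM where Cmax was unknown, alone and with AhR antagonists. Read-out: percent test/control growth of tumor spheroids containing HUVEC and MSC stromal cells.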
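Also: spheroids exposed to agents for 7 days before readout.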
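For viability, T/C in this document: 100% = DMSO vehicle control wells.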

CC[C@@]1(O)C(=O)OCc2c1cc1n(c2=O)Cc2cc3c(CN(C)C)c(O)ccc3nc2-1 + Cc1ccccc1N=Nc1ccc(NC(=O)c2ccnn2C)c(C)c1
IC50 (second compound 0.1 µM): > 100 nM | IC50 (second compound 0.316 µM): > 100 nM | IC50 (second compound 1 µM): > 100 nM | IC50 (second compound 3.16 µM): > 100 nM | IC50 (second compound 10 µM): > 100 nM | viability, T/C (second compound 0.1 µM, first compound 0.000316 µM): 98.8% | viability, T/C (second compound 0.1 µM, first compound 0.001 µM): 98.7% | viability, T/C (second compound 0.1 µM, first compound 0.00316 µM): 111% | viability, T/C (second compound 0.1 µM, first compound 0.01 µM): 95.8% | viability, T/C (second compound 0.1 µM, first compound 0.0316 µM): 89.3% | viability, T/C (second compound 0.1 µM, first compound 0.1 µM): 80.9% | viability, T/C (second compound 0.316 µM, first compound 0.000316 µM): 98.2% | viability, T/C (second compound 0.316 µM, first compound 0.001 µM): 105% | viability, T/C (second compound 0.316 µM, first compound 0.00316 µM): 106% | viability, T/C (second compound 0.316 µM, first compound 0.01 µM): 96.6% | viability, T/C (second compound 0.316 µM, first compound 0.0316 µM): 89.3% | viability, T/C (second compound 0.316 µM, first compound 0.1 µM): 85.9% | viability, T/C (second compound 1 µM, first compound 0.000316 µM): 89.1% | viability, T/C (second compound 1 µM, first compound 0.001 µM): 94% | viability, T/C (second compound 1 µM, first compound 0.00316 µM): 92.6% | viability, T/C (second compound 1 µM, first compound 0.01 µM): 81.1% | viability, T/C (second compound 1 µM, first compound 0.0316 µM): 87% | viability, T/C (second compound 1 µM, first compound 0.1 µM): 77.4% | viability, T/C (second compound 3.16 µM, first compound 0.000316 µM): 87.4% | viability, T/C (second compound 3.16 µM, first compound 0.001 µM): 81.2% | viability, T/C (second compound 3.16 µM, first compound 0.00316 µM): 93.3% | viability, T/C (second compound 3.16 µM, first compound 0.01 µM): 90.4% | viability, T/C (second compound 3.16 µM, first compound 0.0316 µM): 90.4% | viability, T/C (second compound 3.16 µM, first compound 0.1 µM): 79.9% | viability, T/C (second compound 10 µM, first compound 0.000316 µM): 88.9% | viability, T/C (second compound 10 µM, first compound 0.001 µM): 80.7% | viability, T/C (second compound 10 µM, first compound 0.00316 µM): 87.4% | viability, T/C (second compound 10 µM, first compound 0.01 µM): 86.2% | viability, T/C (second compound 10 µM, first compound 0.0316 µM): 80.7% | viability, T/C (second compound 10 µM, first compound 0.1 µM): 63.5%

CCc1c2c(nc3ccc(O)cc13)-c1cc3c(c(=O)n1C2)COC(=O)[C@]3(O)CC + Cc1ccccc1N=Nc1ccc(NC(=O)c2ccnn2C)c(C)c1
IC50 (second compound 0.1 µM): > 300 nM | IC50 (second compound 0.316 µM): > 300 nM | IC50 (second compound 1 µM): 238 nM | IC50 (second compound 3.16 µM): > 300 nM | IC50 (second compound 10 µM): 86.2 nM | viability, T/C (second compound 0.1 µM, first compound 0.000949 µM): 79.7% | viability, T/C (second compound 0.1 µM, first compound 0.003 µM): 94.1% | viability, T/C (second compound 0.1 µM, first compound 0.00949 µM): 89.5% | viability, T/C (second compound 0.1 µM, first compound 0.03 µM): 76.1% | viability, T/C (second compound 0.1 µM, first compound 0.0949 µM): 59.2% | viability, T/C (second compound 0.1 µM, first compound 0.3 µM): 55.1% | viability, T/C (second compound 0.316 µM, first compound 0.000949 µM): 83.4% | viability, T/C (second compound 0.316 µM, first compound 0.003 µM): 89.2% | viability, T/C (second compound 0.316 µM, first compound 0.00949 µM): 94.8% | viability, T/C (second compound 0.316 µM, first compound 0.03 µM): 71.2% | viability, T/C (second compound 0.316 µM, first compound 0.0949 µM): 54.9% | viability, T/C (second compound 0.316 µM, first compound 0.3 µM): 50% | viability, T/C (second compound 1 µM, first compound 0.000949 µM): 90.2% | viability, T/C (second compound 1 µM, first compound 0.003 µM): 93.2% | viability, T/C (second compound 1 µM, first compound 0.00949 µM): 79.6% | viability, T/C (second compound 1 µM, first compound 0.03 µM): 72.1% | viability, T/C (second compound 1 µM, first compound 0.0949 µM): 60% | viability, T/C (second compound 1 µM, first compound 0.3 µM): 47.3% | viability, T/C (second compound 3.16 µM, first compound 0.000949 µM): 85.1% | viability, T/C (second compound 3.16 µM, first compound 0.003 µM): 88.9% | viability, T/C (second compound 3.16 µM, first compound 0.00949 µM): 80.7% | viability, T/C (second compound 3.16 µM, first compound 0.03 µM): 62.8% | viability, T/C (second compound 3.16 µM, first compound 0.0949 µM): 57.8% | viability, T/C (second compound 3.16 µM, first compound 0.3 µM): 50.2% | viability, T/C (second compound 10 µM, first compound 0.000949 µM): 85.4% | viability, T/C (second compound 10 µM, first compound 0.003 µM): 84.7% | viability, T/C (second compound 10 µM, first compound 0.00949 µM): 76.8% | viability, T/C (second compound 10 µM, first compound 0.03 µM): 60% | viability, T/C (second compound 10 µM, first compound 0.0949 µM): 50.2% | viability, T/C (second compound 10 µM, first compound 0.3 µM): 44.7%
